Assay type in all cases: cell-based, human
For test [1], the system named is patient-derived organoids (lung cancer). In words: Patient tumor tissue-derived organoid assay (area, caspase activity). The protocol:
Next, drug efficacy in patient tumor tissue-derived organoids was determined. Approximately 5000 cells/sample from 2 surgical samples were seeded in an ultra-low attachment plate and incubated at 37° C. […] In one of the patient-derived organoids, cisplatin treatment alone decreased spheroid area and increased apoptosis as measured by green intensity (FIG. 11D). […] Indeed, by 72 hours carfilzomib at a concentration of 2.5 μM induced 5-fold increase in caspase activity compared to cisplatin alone but there was not much change in the spheroid area (FIGS. 11E-11F). Thus, no additive effect was apparent in this patient sample. […] The efficacy of ITGB4 antibody in disrupting organoid growth and inducing apoptosis was also tested.

In test [2] the test system is ITGB4, PXN, FAK, p27, phospho-Rb, γH2AX, cleaved PARP in H2009 cells. In words: Immunoblot. Conditions: sublethal dose. The protocol: (§1) West blotting: Cell lysates were prepared with 1×RIPA buffer (MilliporeSigma) and denatured in 1× reducing sample buffer at 95° C. for 5 minutes. Protein samples (15 μg) were run on 4-15% TGX gels (Bio-Rad, Hercules, Calif., USA) and transferred onto nitrocellulose membranes (Bio-Rad). Blots were blocked with 5% non-fat milk in TBS-T for 1 hour at room temperature and probed with primary antibody diluted in 2.5% BSA in TBS-T overnight at 4° C. After three washes with TBS-T, blots were incubated with HRP-conjugated secondary antibodies for 2 hours at room temperature. After three more washes, bands of interest were visualized via chemiluminescence using Western Bright ECL HRP substrate (Advansta, Menlo Park, Calif., USA) and imaged with the ChemiDoc MP imager (Bio-Rad).
(§2) Then a sublethal dose was used to determine the effect of these compounds on ITGB4 and PXN expression and caspase activity (FIG. 9I). […] These eleven compounds were further screened in the cisplatin-resistant cell line H2009. […] Further, carfilzomib was tested in another cisplatin-resistant cell line H1993.

The test system of test [3] is ITGB4, PXN, FAK, MET, γH2AX, cleaved PARP in H1993 cells. In words: Immunoblot. Conditions: 50-200 nM carfilzomib. The protocol: as §1, §2
Test [4] deals with ITGB4 and PXN expression, γH2AX in H358 cells. Put plainly: Immunoblot after sublethal dose. To be noted: 72 hours. The protocol:
as §1, §2

The next test concerns H2009 spheroids. Put plainly: 3D spheroid assay (red fluorescence viability, caspase-3/7). To be noted: 300 nM, 72 hours. The protocol: 3D spheroid assay. 3D spheroid experiments were performed using cell lines stably transfected with NucLight Red Lentivirus (Essen Bioscience) to visualize red fluorescence as an indicator of cell viability. Cells were seeded on a 96-well ultra-low attachment plate and allowed to form spheroids overnight. Drug treatment was added as indicated along with Cytotox Green Reagent (Essen BioScience), used as a green fluorescence indicator of cell death due to loss of cell membrane integrity. To monitor cell proliferation and apoptosis over time, the plate was placed in the IncuCyte S3 Live-Cell Analysis System (Essen BioScience) and images were acquired every 2 hours. Data analysis was generated by the IncuCyte software using a red fluorescence mask to accurately measure intensity and area of red fluorescence, indicating spheroid viability and a green fluorescence mask, indicating cell death.
Confocal microscopy. […] Images were processed using ZEN software and analyzed using ImageJ (Schneider, C. A.; Rasband, W. S. & Eliceiri, K. W. (2012), “NIH Image to ImageJ: 25 years of image analysis”, Nature methods 9(7): 671-675, PMID 22930834).
To mimic conditions closer to in vivo, the effect of knocking down PXN or ITGB4 was discerned in spheroids (3D) formed from the cell lines used in 2D culture. […] The spheroid growth and survival were quantitated by monitoring dye intensity and area in real time. […]

Entries after “also recorded” stand apart in the source; their conditions may differ.

Turning to `CC(C)C[C@H](NC(=O)[C@H](CCc1ccccc1)NC(=O)CN1CCOCC1)C(=O)N[C@@H](Cc1ccccc1)C(=O)N[C@@H](CC(C)C)C(=O)[C@@]1(C)CO1` [Carfilzomib], the “spheroid area” value in test [1] (patient LCSC2) is listed as “decreased the spheroid area”. Besides, the “caspase activity, combination with cisplatin” value in test [1] (patient LCSC2, both drugs combined) is recorded as “enhanced”. The “apoptosis, combination with cisplatin” value in test [1] (patient LCSC4, carfilzomib and cisplatin combined) was “did not have an additive effect”. Further, in test [1] (patient LCSC4, cisplatin 5 μM alone, carfilzomib 2.5 μM alone), the “organoid size” value is “decreased the size of the organoid”. The “induction of apoptosis (caspase activity) compared to cisplatin alone” value in test [1] (patient LCSC4 organoids, 2.5 μM, by 72 hours) is 5 fold. Besides, the “increase in apoptosis (caspase activity)” value in test [1] (second patient (LCSC2) organoids) is given as approximately 50 fold. The “protein expression by immunoblot” value is “reduced ITGB4 and PXN expression; also recorded: reduced expression of ITGB4 and phospho-Rb (S807/811) and increased expression of p27, γH2AX, and cleaved PARP” in test [2]; “reduction in ITGB4 expression and increase in cleaved PARP and γH2AX” in test [3]. Besides, the “apoptosis, DNA damage (γH2AX) and ITGB4 expression” value in test [4] was “induced apoptosis and caused DNA damage”. In the test with H2009 spheroids, the “drop in red intensity of spheroid” value is recorded as 2 fold. Further, the “increase in caspase activity” value with H2009 spheroids worked out at 2 fold.
